Results taken from patent US11299494B2, “Substituted imidazo[1,2-b]pyridazines as interleukin-23 and interferon-α modulators” (BRISTOL-MYERS SQUIBB COMPANY, priority 2016, dated 2022).

Experiments:
[1] = biological target: T1, human Tyk2 (amino acids 575-869, His-tagged) (Homo sapiens, UniProt P29597); experiment: Probe displacement assay (scintillation proximity, radiolabeled probe); assay type: binding; details: 2.5 nM Tyk2 (575-869), 40 nM tritiated probe, 30 minutes at room temperature
T1 construct: made in house
Method: The probe displacement assay is conducted as follows: In a […], test compounds along with recombinantly expressed His-tagged protein corresponding to amino acids 575-869 of human Tyk2 (sequence shown below) at 2.5 nM, 40 nM ((R)—N-(1-(3-(8-methyl-5-(methylamino)-8H-imidazo[4,5-d]thiazolo[5,4-b]pyridin-2-yl)phenyl)ethyl)-2-([^3H]methylsulfonyl)benzamide) (preparation described below) and 80 μg/mL Copper His-Tag scintillation proximity assay beads (Perkin Elmer, Catalog #RPNQ0095) in 50 mM HEPES, pH 7.5, containing 100 μg/mL bovine serum albumin and 5% DMSO were incubated for 30 minutes at room temperature. The amount of radiolabeled probe (preparation described below) bound to Tyk2 was then quantified by scintillation counting, and the inhibition by the test compound calculated by comparison to wells either with no inhibitor (0% inhibition) or without Tyk2 (100% inhibition). The IC50 value is defined as the concentration of test compound required to inhibit radiolabeled probe binding by 50%.
Protein Sequence of recombinant Hig-tagged Tyk2 (575-869):
The preparation of radiolabeled probe, (R)—N-(1-(3-(8-methyl-5-(methylamino)-8H-imidazo[4,5-d]thiazolo[5,4-b]pyridin-2-yl)phenyl)ethyl)-2-([^3H]methylsulfonyl)benzamide, was performed as described below:
2-([^3H]methylsulfonyl)benzoic acid: 2-Mercaptobenzoic acid (2.3 mg, 0.015 mmol) and cesium carbonate (2 mg, 0.006 mmol) were added to a 5 mL round-bottomed flask. The flask was attached to a ported glass vacuum line and anhydrous DMF (0.5 mL) was introduced with magnetic stirring. An ampoule of tritiated methyl iodide (200 mCi, Perkin-Elmer lot 3643419) was added to the reaction flask and stirring was maintained at rt for 3 h. In-process HPLC analysis with radiometric detection indicated 80% conversion to the desired product by comparison with authentic standard. Without purification, the crude product was reacted with mCPBA (10 mg, 0.058 mmol) pre-dissolved in CH2Cl2 (1 mL) at room temperature with stirring. The reaction was stirred for 7 h and additional mCPBA (10 mg, 0.058 mmol) was added. The reaction was stirred for approximately 24 h and HPLC analysis indicated 35-40% conversion to the desired […] product. The crude product was purified by semi-preparative HPLC (Luna Sum C18 (10×250 cm); A: MeOH/H2O=15/85 (0.1% TFA); B: MeOH; 270 nm; 0-8 min 0% B 1 ml/min; 8-10 min 0% B 1-3 ml/min; 10-55 min 0% B 3 ml/min; 55-65 min 0-10% B 3 ml/min; 65-75 min 10-50% B 3 ml/min; 75-80 min 50-100% B 3 ml/min) to give 81 mCi (40% radiochemical yield) of 2-([^3H]methylsulfonyl)benzoic acid product identified by its HPLC co-elution with an authentic standard. The radiochemical purity was measured by HPLC to be 99% (Luna 5u C18 (4.6×150 cm); A: H2O (0.1% TFA); B: MeOH; 1.2 ml/min; 270 nm; 0-10 min 20% B; 10-15 min 20-100% B; 15-25 min 100% B. The product was dissolved in anhydrous acetonitrile to give a final solution activity of 5.8 mCi/mL. (R)—N-(1-(3-(8-methyl-5-(methylamino)-8H-imidazo[4,5-d]thiazolo[5,4-b]pyridin-2-yl)phenyl)ethyl)-2-([^3H]methylsulfonyl)benzamide: A solution of 2-([^3H]methylsulfonyl)benzoic acid (23.2 mCi) in acetonitrile was added to a 5 mL round-bottomed flask which was then attached to a vacuum line and carefully evaporated to dryness. (R)-2-(3-(1-aminoethyl)phenyl)-N,8-dimethyl-8H-imidazo[4,5-d]thiazolo[5,4-b]pyridin-5-amine (prepared as described in WO 2004/106293 and Dyckman et al., Bioorganic and Medicinal Chemistry Letters, 383-386 (2011)) (1.1 mg, 0.0033 mmol) and PyBOP (2 mg, 0.0053 mmol) dissolved in anhydrous DMF (1.5 mL) were added to the flask followed by N,N-diisopropylethylamine (0.010 mL). The resulting clear solution was stirred at room temperature for 18 h. […]

[2] = test system: IL-23 Kit225 Reporter (Kit225 T cells with STAT-dependent luciferase reporter); experiment: Kit225 T cell assay, IL-23 stimulated STAT-dependent luciferase reporter; assay type: cell-based; details: 20 ng/mL human recombinant IL-23, 5-6 hours
Method: (§1) Kit225 T cells with a stably-integrated STAT-dependent luciferase reporter were plated in RPMI (GIBCO) containing 10% heat-inactivated FBS (GIBCO) and 100 U/mL PenStrep (GIBCO). The cells were then stimulated with either 20 ng/mL human recombinant IL-23 or 200 U/mL human recombinant IFNα (PBL InterferonSource) for 5-6 hours. Luciferase expression was measured using the STEADY-GLO® Luciferase Assay System (PROMEGA®) according to the manufacturer's instructions. Inhibition data were calculated by comparison to no inhibitor control wells for 0% inhibition and non-stimulated control wells for 100% inhibition. Dose response curves were generated to determine the concentration required to inhibit 50% of cellular response (IC50) as derived by non-linear regression analysis.

[3] = test system: IFNa Kit225 Reporter (Kit225 T cells with STAT-dependent luciferase reporter); experiment: Kit225 T cell assay, IFNα stimulated STAT-dependent luciferase reporter; assay type: cell-based; details: 200 U/mL human recombinant IFNα, 5-6 hours
Method: as §1

T1 sequence (P29597 with tags, fused parts or gaps): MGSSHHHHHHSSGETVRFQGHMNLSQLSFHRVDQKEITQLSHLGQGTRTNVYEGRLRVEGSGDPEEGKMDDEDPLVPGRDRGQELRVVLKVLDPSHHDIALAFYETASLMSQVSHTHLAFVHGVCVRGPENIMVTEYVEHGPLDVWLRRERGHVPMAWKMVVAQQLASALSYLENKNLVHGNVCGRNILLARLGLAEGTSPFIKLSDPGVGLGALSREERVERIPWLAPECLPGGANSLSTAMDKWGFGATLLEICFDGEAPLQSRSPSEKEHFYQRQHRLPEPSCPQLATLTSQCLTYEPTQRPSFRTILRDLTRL

EC50 [1] [µM]	IC50 [2] [µM]	IC50 [3] [µM]	Compound
0.022	2.1	1.32	CNc1cc(-n2cc(C(=O)NCC(C)(C)O)c3ccccc32)nn2c(C(=O)NC3CC3)cnc12 [Example 1, N-cyclopropyl-6-(3-((2-hydroxy-2-methylpropyl)carbamoyl)-1H-indol-1-yl)-8-(methylamino)imidazo[1,2-b]pyridazine-3-carboxamide]
0.005	0.813	1.12	CCNC(=O)c1cn(-c2cc(NC)c3ncc(C(=O)NC4CC4)n3n2)c2ccccc12 [Example 2]
0.019	12.5	4.79	CNc1cc(-n2cc(C(=O)N3CCC(O)CC3)c3ccccc32)nn2c(C(=O)NC3CC3)cnc12 [Example 3]
0.022	1.89	1.23	CNc1cc(-n2cc(C(=O)Nc3cccnc3)c3ccccc32)nn2c(C(=O)NC3CC3)cnc12 [Example 4]
0.025	1.96	4.21	CNc1cc(-n2cc(C(=O)Nc3ccccc3)c3ccccc32)nn2c(C(=O)NC3CC3)cnc12 [Example 5]
0.031	12.5	9.55	CNc1cc(-n2cc(C(=O)NCCC(N)=O)c3ccccc32)nn2c(C(=O)NC3CC3)cnc12 [Example 6]
0.035	1.64	0.924	CNc1cc(-n2cc(C(=O)NCC(C)C)c3ccccc32)nn2c(C(=O)NC3CC3)cnc12 [Example 7]
0.037	0.574	0.537	CNc1cc(-n2cc(C(=O)NCCOC)c3ccccc32)nn2c(C(=O)NC3CC3)cnc12 [Example 8]
0.04	3.09	1.46	CNc1cc(-n2cc(C(=O)NC(C)C)c3ccccc32)nn2c(C(=O)NC3CC3)cnc12 [Example 9]
0.006	1.1	0.882	CNc1cc(-n2cc(C(=O)NCC(C)(C)O)c3ccccc32)nn2c(C(=O)NC3CCC3)cnc12 [Example 10]
0.01	1.37	0.689	CNc1cc(-n2cc(C(=O)NC3CCOCC3)c3ccccc32)nn2c(C(=O)NC3CCC3)cnc12 [Example 11]
0.018	1.74	1.29	CNc1cc(-n2cc(C(=O)N3CCOCC3)c3ccccc32)nn2c(C(=O)NC3CCC3)cnc12 [Example 12]
0.025	0.294	1.25	CNc1cc(-n2cc(C(=O)NCC(C)(C)O)c3cccnc32)nn2c(C(=O)NC3CC3)cnc12 [Example 13]
0.029	3.64	1.75	CNc1cc(-n2cnc3ccccc32)nn2c(C(=O)NC3CC3)cnc12 [Example 14]
0.046	0.649	2.32	CNc1cc(-n2ccc3c(OC)cccc32)nn2c(C(=O)NC3CC3)cnc12 [Example 15]
0.123	0.947	1.14	CNc1cc(-n2ccc3ncccc32)nn2c(C(=O)NC3CC3)cnc12 [Example 16]
0.016	0.355	0.27	CNC(=O)c1nn(-c2cc(NC)c3ncc(C(=O)NC4CC4)n3n2)c2ccccc12 [Example 17, N-cyclopropyl-8-(methylamino)-6-(3-(methylcarbamoyl)-1H-indazol-1-yl)imidazo[1,2-b]pyridazine-3-carboxamide]
0.04	0.7	0.511	CNc1cc(-n2nc(C(=O)N3CCOCC3)c3ccccc32)nn2c(C(=O)NC3CC3)cnc12 [Example 18]
0.061	0.511	0.474	CNc1cc(-n2nc(C(=O)N(C)C)c3ccccc32)nn2c(C(=O)NC3CC3)cnc12 [Example 19]
0.075	0.926	0.475	CNc1cc(-n2nc(C(=O)NCC(C)(C)O)c3ccccc32)nn2c(C(=O)NC3CC3)cnc12 [Example 20]
0.013	0.661	0.433	CNc1cc(-n2ccc3ccccc32)nn2c(C(=O)NC3CC3)cnc12 [Example 21]
0.048	12.5	12.5	CNc1cc(-n2cc(C(=O)O)c3ccccc32)nn2c(C(=O)NC3CCC3)cnc12 [Example 22]
